We go through four substances from patent publication US12729377B2, “RNAi agents and compositions for inhibiting expression of angiopoietin-like 3 (ANGPTL3), and methods of use” (Arrowhead Pharmaceuticals, Inc., priority 2017, dated 2026).

In the oligonucleotide strings, read from the 5' end, every base follows the letter of its sugar. An asterisk marks phosphorothioate; unmarked linkages are phosphodiester. Other units and linkages are bracketed, terminal groups are in braces. A string of capitals states the bases alone. {NAG37} = tridentate N-acetyl-galactosamine targeting ligand, structure (NAG37)s; [invAb] = inverted abasic unit; m = 2'-O-methyl; f = 2'-fluoro

One series has as its system ANGPTL3 protein. As to the kind of experiment: Example 2: serum ANGPTL3 protein by ELISA in mice. It counts as in vivo, C57bl/6 mice. The settings on record: for Avg ANGPTL3 (Average ANGPTL3 Protein Normalized to Pre-Treatment and Control): 3.0 mg/kg single subcutaneous dose on day 1, serum, female C57bl/6 mice. As for the experimental part: To assess the in vivo activity of ANGPTL3 RNAi agents that are designed to target different positions on the ANGPTL3 gene, six- to eight-week-old female C57bl/6 mice were used. Pre-dose serum samples were taken at day −1 after a four hour fast. At day 1, each mouse was given a single subcutaneous administration of 200 μl containing either 3 mg/kg (mpk) of an ANGPTL3 RNAi agent in D5W (dextrose in 5% water), or control (D5W) with no RNAi agent, according to the dosing groups recited in Table 7.
(§1) Each of the RNAi agents included a modified sequence and an N-acetyl-galactosamine-containing targeting ligand conjugated to the 5′ terminal end of the sense strand. (See Tables 3, 4, and 5 for modified sequences and targeting ligand structures). The injections were performed between the skin and muscle (i.e. subcutaneous injections) into the loose skin over the neck and shoulder area. Three (3) mice in each group were tested (n=3). Serum was collected on days 8, 13, 22, 29, and day 36 (for Groups 1 and 5-11 only). Mice were fasted for four hours prior to each collection. ANGPTL3 protein levels in serum were measured by ELISA assay (R&D Systems), according to the manufacturer's recommendations. Triglycerides, high-density lipoprotein (HDL), and total cholesterol in serum were measured on a Cobas® Integra 400 (Roche Diagnostics), according to the manufacturer's recommendations.
(§2) The ANGPTL3 protein levels, triglyceride levels, HDL levels, and total cholesterol levels for each animal were normalized. For normalization, the level of ANGPTL3 protein, triglyceride, HDL, and total cholesterol, respectively, for each animal at a time point, was divided by the pre-treatment level of expression in that animal (in this case at day −1) to determine the ratio of expression “normalized to pre-treatment.” Expression at a specific time point was then normalized to the D5W control group by dividing the “normalized to pre-treatment” ratio for an individual animal by the mean “normalized to pretreatment” ratio of all mice in the D5W control group.
(In an ELISA, binding on a coated surface is turned into a signal by an enzyme label.)

Series [1] relates to ANGPTL3 gene. The series is described as follows: Example 7: serum LDL in mice. It is filed as in vivo. Also noted: key: ratio: (level/pre-treatment day -1 level) ÷ mean of D5W control group. Particulars: 0.5 mg/kg single SC injection day 1, female C57bl/6 mice, n=3, ratio to D5W control. On the procedure: (§3) To further assess the in vivo activity of additional ANGPTL3 RNAi agents that are designed to target position 304 on the ANGPTL3 gene, six- to eight-week-old female C57bl/6 mice were used. Pre-dose serum samples were taken at day −1 after a four hour fast. At day 1, each mouse was given a single subcutaneous administration of 200 μl containing 0.5 mg/kg (mpk) of an ANGPTL3 RNAi agent in D5W (dextrose in 5% water), or control (D5W) with no RNAi agent, according to the dosing groups recited in Table 31.
as §1, with “15,” for “13,”, “22,” for “22, 29,”, “29.” for “day 36 (for Groups 1 and 5-11 only).”, “Triglycerides, total cholesterol,” for “Triglycerides,”, “low-density lipoprotein (LDL)” for “total cholesterol”
(§4) The ANGPTL3 protein levels, triglyceride levels, total cholesterol levels, HDL levels, and LDL levels for each animal were normalized. For normalization, the level of ANGPTL3 protein, triglyceride, HDL, and total cholesterol, respectively, for each animal at a time point, was divided by the pre-treatment level of expression in that animal (in this case at day −1) to determine the ratio of expression “normalized to pre-treatment.” Expression at a specific time point was then normalized to the D5W control group by dividing the “normalized to pre-treatment” ratio for an individual animal by the mean “normalized to pretreatment” ratio of all mice in the D5W control group.

Series [2] deals with ANGPTL3 gene. The series is described as follows: Example 4: serum LDL in mice. It counts as in vivo, C57bl/6 mice. The settings on record: for Avg LDL, normalized to pre-treatment and control: serum, n=3. As for the experimental part: To assess the in vivo activity of ANGPTL3 RNAi agents that are designed to target additional positions on the ANGPTL3 gene, six- to eight-week-old female C57bl/6 mice were used. Pre-dose serum samples were taken at day −1 after a four hour fast. At day 1, each mouse was given a single subcutaneous administration of 200 μl containing either 1 mg/kg (mpk) or 0.5 mg/kg (mpk) of an ANGPTL3 RNAi agent in D5W (dextrose in 5% water), or control (D5W) with no RNAi agent, according to the dosing groups recited in Table 17.
as §1, with “15,” for “13,”, “43 (Groups 1-3, 9,” for “36 (for Groups 1”, “11-13” for “5-11”
as §2

Series [3] has as its system ANGPTL3 gene. The series is described as follows: Example 7: serum total cholesterol in mice. It counts as in vivo, C57bl/6 mice. Set-up: key: ratio: (level/pre-treatment day -1 level) ÷ mean of D5W control group. On the procedure: as §3
as §1, with “15,” for “13,”, “22,” for “22, 29,”, “29.” for “day 36 (for Groups 1 and 5-11 only).”, “Triglycerides, total cholesterol,” for “Triglycerides,”, “low-density lipoprotein (LDL)” for “total cholesterol”
as §4

Where [4] appears, read: day 29, single 3 mg/kg subcutaneous, C57bl/6 mice.
The mark [5] stands for this setting: Day 8, 1.0 mg/kg single SC injection on day 1.
The mark [6] stands for this setting: Day 15, 1.0 mg/kg single SC injection on day 1.
Setting [7] is: Day 22, 1.0 mg/kg single SC injection on day 1.
Setting [8] is: Day 29, 1.0 mg/kg single SC injection on day 1.
The mark [9] stands for this setting: Day 43, 1.0 mg/kg single SC injection on day 1.
Setting [10] is: Day 8, 0.5 mg/kg single SC injection on day 1, n=3.
[11] abbreviates: Day 15, 0.5 mg/kg single SC injection on day 1, n=3.
The mark [12] stands for this setting: Day 22, 0.5 mg/kg single SC injection on day 1, n=3.
Setting [13] is: Day 29, 0.5 mg/kg single SC injection on day 1, n=3.

Take “AD05307: RNAi agent duplex: antisense AM07001-AS, sense AM07000-SS (chain 1 mU*fU*mU*fGmAfAmUfUmAfAmUfGmUfCmCfAmUfGmGmG*mC; chain 2 {NAG37}*[invAb]*mGmCmCmCmAmUmGmGfAfCfAmUmUmAmAmUmUmCmAmAmA*[invAb])”: the “Avg ANGPTL3 (Average ANGPTL3 Protein Normalized to Pre-Treatment and Control)” value in the series with ANGPTL3 protein (Day 8) is 0.117; in the series on ANGPTL3 protein (Day 13) it was 0.120; in the series on ANGPTL3 protein (Day 22) it was 0.134; in the series on ANGPTL3 protein (Day 29), 0.206; in the series with ANGPTL3 protein (Day 36), 0.216. Also, in the series with ANGPTL3 protein (setting [4]), the “ANGPTL3 protein normalized to pre-treatment and control” value is 0.206.
Take “AD05308: RNAi agent duplex: antisense AM07003-AS, sense AM07002-SS (chain 1 mU*fG*mU*fUmGfAmAfUmUfAmAfUmGfUmCfCmAfUmGfG*mA; chain 2 {NAG37}*[invAb]*mUmCmCmAmUmGmGmAfCfAfUmUmAmAmUmUmCmAmAmCmA*[invAb])”: the “Avg ANGPTL3 (Average ANGPTL3 Protein Normalized to Pre-Treatment and Control)” value in the series on ANGPTL3 protein (Day 8) is 0.106; in the series on ANGPTL3 protein (Day 13), 0.076; with ANGPTL3 protein (Day 22), 0.084; in the series with ANGPTL3 protein (Day 29), 0.088; in the series with ANGPTL3 protein (Day 36) it was 0.167. In the series on ANGPTL3 protein (setting [4]), the “ANGPTL3 protein normalized to pre-treatment and control” value was found to be 0.088. Also, in the series with ANGPTL3 protein (setting [4]), the “reduction in ANGPTL3 protein compared to control” value was “approximately 91%”. For the same substance, the “Avg LDL, normalized to pre-treatment and control” value (shortened to “Avg LDL, normalized”) in the series on ANGPTL3 gene [1] (Day 8) is 0.710; in the series with ANGPTL3 gene [1] (Day 15), 0.801; in the series with ANGPTL3 gene [1] (Day 22) it was 0.933; in the series with ANGPTL3 gene [1] (Day 29) it was 1.047; in the series on ANGPTL3 gene [2] (Day 8, 0.5 mg/kg single SC injection on day 1), 0.965; in the series on ANGPTL3 gene [2] (setting [5]), 0.842. For the same substance, the “Avg LDL, normalized” value in the series on ANGPTL3 gene [2] (Day 15, 0.5 mg/kg single SC injection on day 1) is recorded as 0.830; with ANGPTL3 gene [2] (setting [6]) it was 0.688; in the series with ANGPTL3 gene [2] (setting [7]), 0.829; in the series with ANGPTL3 gene [2] (setting [8]), 0.897; in the series with ANGPTL3 gene [2] (setting [9]) it was 1.033. Moreover, the “Avg Total Chol, normalized to pre-treatment and control” value (“Avg Total Chol, normalized” for short) with ANGPTL3 gene [3] (setting [10]) worked out at 0.756; with ANGPTL3 gene [3] (setting [11]), 0.814; with ANGPTL3 gene [3] (setting [12]), 0.896; in the series with ANGPTL3 gene [3] (setting [13]), 0.927.
“AD05418: RNAi agent duplex: antisense AM07159-AS, sense AM07158-SS (antisense mU*fU*mU*fGmAfAmUfUmAfAmUfGmUfCmCfAmUfGmGfG*mU; sense {NAG37}*[invAb]*mAmCmCmCmAmUmGmGfAfCfAmUmUmAmAmUmUmCmAmAmA*[invAb])”: the “Avg LDL, normalized” value was found to be 1.160 in the series with ANGPTL3 gene [1] (Day 8); 0.928 in the series with ANGPTL3 gene [1] (Day 15); 0.950 with ANGPTL3 gene [1] (Day 22); 1.131 in the series on ANGPTL3 gene [1] (Day 29); 1.044 in the series with ANGPTL3 gene [2] (setting [5]); 0.841 in the series on ANGPTL3 gene [2] (setting [6]). The “Avg LDL, normalized” value in the series on ANGPTL3 gene [2] (setting [7]) was found to be 1.142; with ANGPTL3 gene [2] (setting [8]), 0.966; in the series on ANGPTL3 gene [2] (setting [9]), 0.921. Besides, the “Avg Total Chol, normalized” value turned out to be 0.950 in the series with ANGPTL3 gene [3] (setting [10]), 0.878 in the series with ANGPTL3 gene [3] (setting [11]), 0.926 with ANGPTL3 gene [3] (setting [12]) and 1.023 in the series on ANGPTL3 gene [3] (setting [13]).
Turning to “AD05488: RNAi agent duplex: antisense AM07235-AS, sense AM07234-SS (antisense mU*fA*mC*fUmGfAmUfCmAfAmAfUmAfUmGfUmUfGmAfG*mC; sense {NAG37}*[invAb]*mGmCmUmCmAmAmCmAfUfAfUmUmUmGmAmUmCmAmGmUmA*[invAb])”, the “Avg LDL, normalized” value with ANGPTL3 gene [1] (Day 8) was 0.953; in the series with ANGPTL3 gene [1] (Day 15), 0.825; in the series on ANGPTL3 gene [1] (Day 22), 0.860; with ANGPTL3 gene [1] (Day 29), 1.055; in the series with ANGPTL3 gene [2] (setting [5]), 0.936; in the series with ANGPTL3 gene [2] (setting [6]), 0.714. The figures for the “Avg LDL, normalized” value in the series with ANGPTL3 gene [2] (setting [7]), in the series on ANGPTL3 gene [2] (setting [8]) and in the series with ANGPTL3 gene [2] (setting [9]) were 0.811, 0.801 and 0.902, respectively. In the series on ANGPTL3 gene [2] (day 29, single 1 mg/kg subcutaneous, C57bl/6 mice), the LDL levels reduced is listed as roughly 20%. Besides, the “Avg Total Chol, normalized” value came out at 0.802 in the series with ANGPTL3 gene [3] (setting [10]), 0.810 in the series with ANGPTL3 gene [3] (setting [11]), 0.810 in the series with ANGPTL3 gene [3] (setting [12]) and 0.906 in the series with ANGPTL3 gene [3] (setting [13]).
